These results are taken from patent publication US7998978B2 (Pfizer Inc., priority 2006, dated 2011).

Structures are written as SMILES.

T1 sequence (P45983 1-364): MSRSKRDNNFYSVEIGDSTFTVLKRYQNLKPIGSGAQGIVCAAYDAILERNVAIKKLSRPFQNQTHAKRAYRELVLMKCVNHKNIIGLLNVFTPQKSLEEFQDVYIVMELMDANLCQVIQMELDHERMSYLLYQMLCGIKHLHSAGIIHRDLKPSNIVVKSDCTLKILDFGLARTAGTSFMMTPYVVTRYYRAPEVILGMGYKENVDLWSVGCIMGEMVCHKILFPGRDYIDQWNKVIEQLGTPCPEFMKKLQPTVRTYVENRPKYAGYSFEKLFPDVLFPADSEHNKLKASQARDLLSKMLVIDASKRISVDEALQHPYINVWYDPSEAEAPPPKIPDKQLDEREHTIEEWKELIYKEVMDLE

The first test concerns the target T1, JNK1α1 (Homo sapiens, UniProt P45983).
T1 construct: catalytic domain containing amino acids 1-364 and N-terminal hexahistidine tag; hexahistidine (His6) (N); made in house; host or cells: E. coli BL21 (DE3)
Put plainly: Coupled spectrophotometric (PK/LDH) JNK1α1 assay: % inhibition and Ki determination. Format: biochemical. To be noted: @1 uM; read-out: % Inhibition JNK-1. The gist of the method:
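Initial rates were taken from the absorbance decrease at 340 nm at 30° C. Ki was fitted with a tight-binding model over 11 concentrations (top 100 μM); single-point inhibition was tested at 1 or 10 μM.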
Consider `O=C(NCCn1cccn1)c1cccc2cnc(N[C@H]3CC[C@H](O)CC3)nc12` [Example 507, 2-[(trans-4-hydroxycyclohexyl)amino]-N-[2-(1H-pyrazol-1-yl)ethyl]quinazoline-8-carboxamide], for which the inhibition at 1 µM amounted to 25%. In the case of `O[C@H]1CC[C@H](Nc2ncc3ccc(OC4CCC(F)(F)CC4)cc3n2)CC1` [Example 279, trans-4-({7-[(4,4-difluorocyclohexyl)oxy]quinazolin-2-yl}amino)cyclohexanol], the inhibition at 1 µM turned out to be 54%. Consider `CC(C)Nc1ncc2ccc(C(=O)N[C@H](CO)C(C)C)cc2n1` [Example 425, N-[(1S)-1-(hydroxymethyl)-2-methylpropyl]-2-(isopropylamino)quinazoline-7-carboxamide], for which the inhibition at 1 µM came out at 11%. As to `CN(C)C(C)(C)COc1cccc2cnc(N[C@H]3CC[C@H](O)CC3)nc12` [Example 251, trans-4-({8-[2-(dimethylamino)-2-methylpropoxy]quinazolin-2-yl}amino)cyclohexanol], the inhibition at 1 µM was 19%. In the case of `O[C@H]1CC[C@H](Nc2ncc3ccc(OCc4nc5ccccc5[nH]4)cc3n2)CC1` [Example 288, trans-4-{[7-(1H-benzimidazol-2-ylmethoxy)quinazolin-2-yl]amino}cyclohexanol], the inhibition at 1 µM came to 39%. In the case of `CC(Cn1cccn1)NC(=O)c1cccc2cnc(N[C@H]3CC[C@H](O)CC3)nc12` (stereo partly drawn) [Example 482, 2-[(trans-4-hydroxycyclohexyl)amino]-N-[1-methyl-2-(1H-pyrazol-1-yl)ethyl]quinazoline-8-carboxamide], the inhibition at 1 µM stood at 13%. Take `O[C@H]1CC[C@H](Nc2ncc3ccc(OC4CCOCC4)cc3n2)CC1` [Example 268, trans-4-{[7-(tetrahydro-2H-pyran-4-yloxy)quinazolin-2-yl]amino}cyclohexanol]: the inhibition at 1 µM worked out at 67%. For the compound `Cc1nn(C)c(C)c1NC(=O)c1cccc2cnc(N[C@H]3CC[C@H](O)CC3)nc12` [Example 318, 2-[(trans-4-hydroxycyclohexyl)amino]-N-(1,3,5-trimethyl-1H-pyrazol-4-yl)quinazoline-8-carboxamide], the inhibition at 1 µM was 37%.

The test is the same for the next values; noted with them: @10 uM; read-out: % Inhibition JNK-1.
Regarding `COc1ccccc1-c1ncc(CNc2cc3cc(-c4cn[nH]c4)ccc3cn2)cn1` [Example 232, N-{[2-(2-methoxyphenyl)pyrimidin-5-yl]methyl}-6-(1H-pyrazol-4-yl)isoquinolin-3-amine], the inhibition at 10 µM was 46%. Consider `CC(C)(C)C(=O)N1CCC(NC(=O)c2cccc3cnc(N[C@H]4CC[C@H](O)CC4)nc23)C1` (stereo partly drawn) [Example 504, N-[1-(2,2-dimethylpropanoyl)pyrrolidin-3-yl]-2-[(trans-4-hydroxycyclohexyl)amino]quinazoline-8-carboxamide], for which the inhibition at 10 µM worked out at 40%.

As to `c1cc(CNc2cc3cc(-c4cn[nH]c4)ccc3cn2)[nH]n1` [Example 229, 6-(1H-pyrazol-4-yl)-N-(1H-pyrazol-5-ylmethyl)isoquinolin-3-amine], the inhibition at 10 µM is 17%.

In the case of `Cc1nccn1CCNC(=O)c1cccc2cnc(N[C@H]3CC[C@H](O)CC3)nc12` [Example 485, 2-[(trans-4-hydroxycyclohexyl)amino]-N-[2-(2-methyl-1H-imidazol-1-yl)ethyl]quinazoline-8-carboxamide], the inhibition at 10 µM came out at 72%.

Take `CC[C@@H](CO)NC(=O)c1ccc2cnc(NC3CCCC3)nc2c1` [Example 436, 2-(cyctopentylamino)-N-[(1S)-1-(hydroxymethyl)propyl]quinazoline-7-carboxamide]: the inhibition at 10 µM came to 85%. For `CC(=O)N1CCC(CNC(=O)c2cccc3cnc(N[C@H]4CC[C@H](O)CC4)nc23)CC1` [Example 505, N-[(1-acetylpiperidin-4-yl)methyl]-2-[(trans-4-hydroxycyclohexyl)amino]quinazoline-8-carboxamide], the inhibition at 10 µM amounted to 58%.

Staying with this test, now noted: JNK-1.
As for `CCC(=O)N[C@H]1CC[C@H](Nc2ncc3cccc(OC4CCOCC4)c3n2)CC1` [Example 180, N-(trans-4-{[8-(tetrahydro-2H-pyran-4-yloxy)quinazolin-2-yl]amino}cyclohexyl)propanamide], the affinity corresponds to a Ki of 570 nM. In other words, the sub-micromolar range. `O=C(Cn1cnnn1)Nc1cc2cc(-c3cn[nH]c3)ccc2cn1` [Example 48, N-[6-(1H-pyrazol-4-yl)isoquinolin-3-yl]-2-(1H-tetrazol-1-yl)acetamide] showed a Ki of 15 nM. On the same count and under the same terms, under `COC(=O)N1CCC(c2cccc3cnc(N[C@H]4CC[C@H](O)CC4)nc23)C1` (stereo partly drawn) [Example 196, methyl 3-{2-[(trans-4-hydroxycyclohexyl)amino]quinazolin-8-yl}pyrrolidine-1-carboxylate] stands 56 nM; under `CC(C)c1ncc(NC(=O)c2ccc3cnc(N[C@H]4CC[C@H](O)CC4)nc3c2)cn1` [Example 359, 2-[(trans-4-hydroxycyclohexyl)amino]-N-(2-isopropylpyrimidin-5-yl)quinazoline-7-carboxamide], 1720 nM; under `O=C(N[C@@H]1COC[C@H]1O)c1cccc2cnc(N[C@H]3CC[C@H](O)CC3)nc12` (relative stereo) [Example 139, 2-[(trans-4-hydroxycyclohexyl)amino]-N-[(trans)-4-hydroxytetrahydrofuran-3-yl]quinazoline-8-carboxamide], 16 nM. `CC(C)Nc1ncc2ccc(C(=O)N[C@H](CO)Cc3ccccc3)cc2n1` [Example 415, N-((1S)-1-benzyl-2-hydroxyethyl]2-(isopropylamino)quinazoline-7-carboxamide] displayed a Ki of 1490 nM. This Ki lies about 93-fold higher than the previous one. Take `CNC(=O)c1ccc2cnc(N[C@H]3CC[C@H](O)CC3)nc2c1` [Example 58, 2-[(trans-4-hydroxycyclohexyl)amino]-N-methylquinazoline-7-carboxamide]: the Ki was determined as 261 nM. `COC1CCC(C(=O)Nc2cc3cc(-c4cn[nH]c4)ccc3cn2)CC1` (stereo not shown) [Example 28, 4-methoxy-N-[6-(1H-pyrazol-4-yl)isoquinolin-3-yl]cyclohexanecarboxamide]: the Ki is 32 nM. In the case of `O=C(NC1CCN(c2cccnn2)CC1)c1cccc2cnc(N[C@H]3CC[C@H](O)CC3)nc12` [Example 449, 2-[(trans-4-hydroxycyclohexyl)amino]-N-(1-pyridazin-3-ylpiperidin-4-yl)quinazoline-8-carboxamide], the inhibitory constant (Ki) worked out at 138 nM. `O=C(COc1ccc2ccccc2c1)Nc1cc2cc(-c3cn[nH]c3)ccc2cn1` [Example 26, 2-(2-naphthyloxy)-N-[6-(1H-pyrazol-4-yl)isoquinolln-3-yl]acetamide] had a Ki of 7 nM. This Ki is about 20-fold lower than that of the compound before. `O=C(Nc1cc2cc(-c3cn[nH]c3)ccc2cn1)C1NCc2ccccc21` (stereo not shown) [Example 14, N-[6-(1H-pyrazol-4-yl)isoquinolin-3-yl]isoindoline-1-carboxamide]: the Ki was > 50 nM.

In turn, `CC(C)(O)CNC(=O)c1cccc2cnc(N[C@H]3CC[C@H](O)CC3)nc12` [Example 121, 2-[(trans-4-hydroxycyclohexyl)amino]-N-(2-hydroxy-2-methylpropyl)quinazoline-8-carboxamide] showed a Ki of 169 nM. That is a sub-micromolar value.

`Oc1cccc2cnc(N[C@H]3CC[C@H](O)CC3)nc12` [Example 152, 2-[(trans-4-hydroxycyclohexyl)amino]quinazolin-8-ol] displayed an inhibitory constant (Ki) of 420 nM. On to `FCCN[C@H]1CC[C@H](Nc2ncc3cccc(OC4CCOCC4)c3n2)CC1` [Example 189, trans-N-(2-fluoroethyl)-N′-[8-(tetrahydro-2H-pyran-4-yloxy)quinazolin-2-yl]cyclohexane-1,4-diamine], for which the affinity corresponds to a Ki of 877 nM. For `COc1ccc(CCC(=O)Nc2cc3cc(-c4cn[nH]c4)ccc3cn2)cc1` [Example 20, 3-(4-methoxyphenyl)-N-[6-(1H-pyrazol-4-yl)isoquinolin-3-yl]propanamide], the affinity corresponds to a Ki of 44 nM. Same read-out and setting: under `CC[C@@H](CO)NC(=O)c1cccc2cnc(N[C@H]3CC[C@H](O)CC3)nc12` [Example 441, 2-[(trans-4-hydroxycyclohexyl)amino]-N-[(1S)-1-(hydroxymethyl)propyl]quinazoline-8-carboxamide] stands 57 nM; under `Cc1nnc(CNC(=O)c2ccc3cnc(N[C@H]4CC[C@H](O)CC4)nc3c2)o1` [Example 355, 2-[(trans-4-hydroxycyclohexyl)amino]-N-[(5-methyl-1,3,4-oxadiazol-2-yl)methyl]quinazoline-7-carboxamide], 1390 nM; under `O=C(NCC1(O)CCOc2ccccc21)c1cccc2cnc(N[C@H]3CC[C@H](O)CC3)nc12` (stereo partly drawn) [Example 444, 2-[(trans-4-hydroxycyclohexyl)amino]-N-[(4-hydroxy-3,4-dihydro-2H-chromen-4-yl)methyl]quinazoline-8-carboxamide], 106 nM. The same measure, in the same setting: under `CCOC(=O)N1CC[C@@H](NC(=O)c2ccc3cnc(N[C@H]4CC[C@H](O)CC4)nc3c2)C1` [Example 364, ethyl 3-[({2-[(trans-4-hydroxycyclohexyl)amino]quinazolin-7-yl}carbonyl)amino]pyrrolidine-1-carboxylate] stands 1990 nM; under `O=C(NC1(CO)CCCC1)c1ccc2cnc(N[C@H]3CC[C@H](O)CC3)nc2c1` [Example 400, 2-[(trans-4-hydroxycyclohexyl)amino]-N-[1-(hydroxymethyl)cyclopentyl]quinazoline-7-carboxamide], 478 nM.

On to `O[C@H]1CC[C@H](Nc2ncc3ccccc3n2)CC1` [Example 151, trans-4-(quinazolin-2-ylamino)cyclohexanol], for which the affinity, expressed as Ki, was 432 nM. In turn, `O=S(=O)(N[C@H]1CC[C@H](Nc2ncc3ccc(OC4CCOC4)cc3n2)CC1)c1ccccc1` (stereo partly drawn) [Example 165, N-(trans-4-{[7-(tetrahydrofuran-3-yloxy)quinazolin-2-yl]amino}cyclohexyl)benzenesulfonamide] yielded a Ki of 153 nM. As to `CC(=O)N[C@H]1CC[C@H](Nc2ncc3cccc(C(=O)N[C@@H](C)CO)c3n2)CC1` [Example 133, 2-{[trans-4-(acetylamino)cyclohexyl]amino}-N-[(1S)-2-hydroxy-1-methylethyl]quinazoline-8-carboxamide], the affinity corresponds to a Ki of 210 nM.

Broadly, the inhibition is the percentage by which the read-out fell short of the control. By Ki is commonly meant the dissociation constant of the complex between target and ligand, obtained from inhibition or displacement. Read a high Ki as a looser hold on the target.
